Data: patent publication US20110065706A1, “Therapeutic Agents 812” (AstraZeneca AB, priority 2009, published 2011)

Target: T1, human GPR119 (Homo sapiens, UniProt Q8TDV5)
T1 construct: expressed in transfected cells; host or cells: HEK 293s
T1 sequence (Q8TDV5 1-335): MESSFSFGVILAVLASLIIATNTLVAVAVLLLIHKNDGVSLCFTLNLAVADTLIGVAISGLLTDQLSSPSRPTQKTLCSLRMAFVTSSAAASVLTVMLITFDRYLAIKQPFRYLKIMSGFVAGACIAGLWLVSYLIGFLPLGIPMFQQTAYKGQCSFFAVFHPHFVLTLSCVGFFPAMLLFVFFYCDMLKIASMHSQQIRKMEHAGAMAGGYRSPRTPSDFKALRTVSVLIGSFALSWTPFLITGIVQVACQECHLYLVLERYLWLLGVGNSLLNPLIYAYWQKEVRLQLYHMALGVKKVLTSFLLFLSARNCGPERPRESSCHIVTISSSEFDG
Test: Cyclic AMP (HTRF cAMP) assay for human GPR119, Method A
Assay type: cell-based
Details: Method A, HEK 293s cells over-expressing human GPR119; for activation at 30 µM: HEK293S, 0.75 h, percent effect at top concentration 30 μM relative to maximum (50 μM Oleoylethanolamide) and minimum (1% DMSO) controls; for EC50: midpoint of dose response curve, selected examples

SMILES	activation at 30 µM	EC50
CC(C)(C)OC(=O)N1CCN(c2ncc(OCc3ccc(S(C)(=O)=O)cc3)cn2)CC1 [Example 1, Tert-butyl 4-(5-(4-(methylsulfonyl)benzyloxy)pyrimidin-2-yl)piperazine-1-carboxylate]	83%	
CC(C)(C)OC(=O)N1CCN(c2ncc(OCc3ccc(-n4cncn4)cc3)cn2)CC1 [Example 2, tert-butyl 4-(5-(4-(1H-1,2,4-triazol-1-yl)benzyl-oxy)pyrimidin-2-yl)piperazine-1-carboxylate]	131%	
Cc1nc(-c2ccc(COc3cnc(N4CCN(C(=O)OC(C)(C)C)CC4)nc3)cc2)no1 [Example 4, tert-butyl 4-(5-(4-(5-methyl-1,2,4-oxadiazol-3-yl)benzyloxy)pyrimidin-2-yl)piperazine-1-carboxylate]	69%	
CC(C)(C)OC(=O)N1CCN(c2ncc(OCc3ccc(-n4cccn4)nc3)cn2)CC1 [Example 5, tert-butyl 4-(5-((6-(1H-pyrazol-1-yl)pyridin-3-yl)methoxy)pyrimidin-2-yl)piperazine-1-carboxylate]	82%	
CC(=O)Nc1ccc(COc2cnc(N3CCN(C(=O)OC(C)(C)C)CC3)nc2)cn1 [Example 6, tert-butyl 4-(5-((6-acetamido-pyridin-3-yl)methoxy)pyrimidin-2-yl)piperazine-1-carboxylate]	59%	
CC(C)(C)OC(=O)N1CCN(c2ncc(OCc3ccc(-n4cnnn4)cc3)cn2)CC1 [Example 7, Tert-butyl 4-(5-(4-(1H-tetrazol-1-yl)benzyloxy)pyrimidin-2-yl)piperazine-1-carboxylate]	170%	
COc1cc(COc2cnc(N3CCN(C(=O)OC(C)(C)C)CC3)nc2)c(F)cn1 [Example 8, tert-butyl 4-(5-((5-fluoro-2-methoxy-pyridin-4-yl)methoxy)pyrimidin-2-yl)piperazine-1-carboxylate]	26%	
CC(C)(C)OC(=O)N1CCN(c2ncc(OCc3ccncn3)cn2)CC1 [Example 9, tert-butyl 4-(5-(pyrimidin-4-ylmethoxy)pyrimidin-2-yl)piperazine-1-carboxylate]	61%	
Cc1cc(COc2cnc(N3CCN(C(=O)OC(C)(C)C)CC3)nc2)ccc1NC(=O)C(C)C [Example 12, tert-butyl 4-(5-(4-isobutyr-amido-3-methyl-benzyloxy)pyrimidin-2-yl)piperazine-1-carboxylate]	54%	
Cc1cc(COc2cnc(N3CCN(C(=O)OC(C)(C)C)CC3)nc2)ccc1NC(=O)C(C)(C)C [Example 13, tert-butyl 4-(5-(3-methyl-4-pivalamido-benzyloxy)pyrimidin-2-yl)piperazine-1-carboxylate]	41%	
CC(C)C(=O)Nc1ccc(COc2cnc(N3CCN(C(=O)OC(C)(C)C)CC3)nc2)cc1 [Example 14, tert-butyl 4-(5-(4-isobutyramido-benzyloxy)pyrimidin-2-yl)piperazine-1-carboxylate]	78%	
CC(C)(C)OC(=O)N1CCN(c2ncc(OCc3ccc(NC(=O)C(C)(C)C)cc3)cn2)CC1 [Example 15, tert-butyl 4-(5-(4-pivalamido-benzyloxy)pyrimidin-2-yl)piperazine-1-carboxylate]	80%	
CNS(=O)(=O)c1ccc(COc2cnc(N3CCN(C(=O)OC(C)(C)C)CC3)nc2)cc1 [Example 16, tert-butyl 4-(5-(4-(N-methyl-sulfamoyl)benzyloxy)pyrimidin-2-yl)piperazine-1-carboxylate]	57%	
CC(C)(C)OC(=O)N1CCN(c2ncc(OCc3ccc(OS(C)(=O)=O)cc3)cn2)CC1 [Example 17, tert-butyl 4-(5-(4-(methyl-sulfonyloxy)benzyloxy)pyrimidin-2-yl)piperazine-1-carboxylate]	65%	20 nM
C[C@@H]1CN(C(=O)OC(C)(C)C)CCN1c1ncc(OCc2ccc(S(C)(=O)=O)cc2)cn1 [Example 18, (R)-Tert-butyl 3-methyl-4-(5-(4-(methylsulfonyl)benzyloxy)pyrimidin-2-yl)piperazine-1-carboxylate]	155%	

Second part, the compound after the results:

activation at 30 µM	EC50	SMILES
68%		C[C@@H]1CN(C(=O)OC(C)(C)C)CCN1c1ncc(OCc2ccncc2)cn1 [Example 19, (R)-Tert-butyl 3-methyl-4-(5-(pyridin-4-ylmethoxy)pyrimidin-2-yl)piperazine-1-carboxylate]
100%	202 nM	C[C@@H]1CN(C(=O)OC(C)(C)C)CCN1c1ncc(OCc2ccc(C(=O)N(C)CCO)cc2)cn1 [Example 21, (R)-tert-butyl 4-(5-(4-((2-hydroxyethyl) (methyl)carba-moyl)benzyl-oxy)pyrimidin-2-yl)-3-methyl-piperazine-1-carboxylate]
36%		CC(C)(C)OC(=O)N1C[C@@H]2CC[C@H]1CN2c1ncc(OCc2ccc(S(C)(=O)=O)cc2)cn1 [Example 29, (1S,4S)-tert-butyl 5-(5-(4-(methylsulfonyl)benzyloxy)pyrimidin-2-yl)-2,5-diazabicyclo [2.2.2]octane-2-carboxylate]
86%		CC(C)(C)OC(=O)N1CCN(c2ncc(OCc3ccc(S(C)(=O)=O)nc3)cn2)CC1 [Example 30, Tert-butyl 4-(5((6-(methylsulfonyl)pyridin-3-yl)methoxy)pyrimidin-2-yl)piperazine-1-carboxylate]
86%		CC(C)(C)OC(=O)N1CCN(c2ncc(OCc3ccc(S(C)(=O)=O)cn3)cn2)CC1 [Example 31, tert-butyl 4-(5-((5-(methylsulfonyl)pyridin-2-yl)methoxy)pyrimidin-2-yl)piperazine-1-carboxylate]
62%		CC(C)(C)OC(=O)N1CCN(c2ncc(OCc3ccc(S(C)(=O)=O)c(F)c3)cn2)CC1 [Example 32, tert-butyl 4-(5-(3-fluoro-4-(methylsulfonyl)benzyloxy)pyrimidin-2-yl)piperazine-1-carboxylate]
82%		Cc1cc(S(C)(=O)=O)ccc1COc1cnc(N2CCN(C(=O)OC(C)(C)C)CC2)nc1 [Example 33, tert-butyl 4-(5-(2-methyl-4-(methylsulfonyl)benzyloxy)pyrimidin-2-yl)piperazine-1-carboxylate]
128%	19 nM	CC(C)(C)OC(=O)N1CCN(c2ncc(OCc3ccc(S(C)(=O)=O)cc3F)cn2)CC1 [Example 36, tert-butyl 4-(5-(2-fluoro-4-(methylsulf-onyl)benzyl-oxy)pyrimi-din-2-yl)piperazine-1-carboxylate]
52%	20 nM	Cc1cc(COc2cnc(N3CCN(C(=O)OC(C)(C)C)CC3)nc2)ccc1S(C)(=O)=O [Example 37, tert-butyl 4-(5-(3-methyl-4-(methylsulf-onyl)benzyl-oxy)pyrimi-din-2-yl)piperazine-1-carboxylate]
90%		N#Cc1cnccc1COc1cnc(N2CCN(c3ncc(F)cn3)CC2)nc1 [Example 40, 4-((2-(4-(5-Fluoropyrimidin-2-yl)piperazin-1-yl)pyrimidin-5-yloxy)methyl)nicotinonitrile]
64%	156 nM	CS(=O)(=O)c1ccc(COc2cnc(N3CCN(c4ncc(F)cn4)CC3)nc2)cc1 [Example 42, 5-fluoro-2-(4-(5-(4-(methylsulfonyl)benzyloxy)pyrim-idin-2-yl)piperazin-1-yl)pyrimidine]
